For six compounds, ED50 and Activity results are on record in ChEMBL document CHEMBL1147027, “The role of fluorine substitution in the structure-activity relationships (SAR) of classical cannabinoids” (2007).

The species entered for test [1] is Mus musculus. Briefly: Effect on behavioral activity in mouse assessed as spontaneous activity by tetrad test. The test is classed as functional.
For test [2], the species on record is Mus musculus. The experiment in a line: Effect on behavioral activity in mouse assessed as tail flick by tetrad test. The test is classed as functional.
For test [3], the species on record is Mus musculus. Briefly: Effect on behavioral activity in mouse assessed as rectal temperature by tetrad test. The test is classed as functional.
In test [4] the target is Cannabinoid receptor 1 (Homo sapiens) (UniProt P21554). Briefly: Binding affinity to CB1 receptor.
Test [5] has as its system Mus musculus. The experiment in a line: Effect on behavioral activity in mouse assessed as spontaneous activity by tetrad test at 30 mg/kg. The test is classed as functional.
Test [6] has as its system Mus musculus. Briefly: Effect on behavioral activity in mouse assessed as tail flick by tetrad test at 30 mg/kg. The test is classed as functional.
Test [7] deals with Mus musculus. Briefly: Effect on behavioral activity in mouse assessed as rectal temperature by tetrad test at 30 mg/kg. The test is classed as functional.
Test [8] concerns the target Cannabinoid receptor 2 (Homo sapiens) (UniProt P34972). The experiment in a line: Binding affinity to CB2 receptor.
In test [9] the test system is Mus musculus. Briefly: Effect on behavioral activity in intrathecally dosed mouse assessed as tail flick by tetrad test. The test is classed as functional.
Test [10] deals with Mus musculus. The experiment in a line: Effect on behavioral activity in intrathecally dosed mouse assessed as tail flick by tetrad test at 100 mg/kg. The test is classed as functional.

Some results are limits rather than exact numbers.

Cannabinoid receptor 1 (Homo sapiens), sequence (P21554 whole entry): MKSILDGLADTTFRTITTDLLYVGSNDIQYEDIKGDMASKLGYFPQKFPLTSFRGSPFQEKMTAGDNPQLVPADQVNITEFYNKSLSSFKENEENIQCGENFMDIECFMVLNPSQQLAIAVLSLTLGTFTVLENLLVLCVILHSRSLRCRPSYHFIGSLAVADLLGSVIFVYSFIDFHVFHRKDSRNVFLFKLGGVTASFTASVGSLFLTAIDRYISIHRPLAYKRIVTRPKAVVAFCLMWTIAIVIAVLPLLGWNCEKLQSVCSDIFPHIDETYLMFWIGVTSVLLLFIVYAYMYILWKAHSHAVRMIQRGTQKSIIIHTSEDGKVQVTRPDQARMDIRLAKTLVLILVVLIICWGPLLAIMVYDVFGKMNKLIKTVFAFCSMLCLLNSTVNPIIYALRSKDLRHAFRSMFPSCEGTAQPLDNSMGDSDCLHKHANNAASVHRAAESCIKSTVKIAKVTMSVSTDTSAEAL
Cannabinoid receptor 2 (Homo sapiens), sequence (P34972 whole entry): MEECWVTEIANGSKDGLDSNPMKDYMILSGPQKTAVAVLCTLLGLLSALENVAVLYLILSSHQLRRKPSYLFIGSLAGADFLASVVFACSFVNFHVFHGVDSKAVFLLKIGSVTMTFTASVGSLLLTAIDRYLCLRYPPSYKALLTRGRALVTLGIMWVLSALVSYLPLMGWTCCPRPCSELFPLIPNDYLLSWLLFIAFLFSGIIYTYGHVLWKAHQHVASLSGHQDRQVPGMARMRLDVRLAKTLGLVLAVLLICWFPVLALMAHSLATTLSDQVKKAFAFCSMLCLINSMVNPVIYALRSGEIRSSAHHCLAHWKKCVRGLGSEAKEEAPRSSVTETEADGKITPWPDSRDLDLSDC

In the case of `CCCCC/C=C/c1cc(O)c2c(c1)OC(C)(C)[C@@H]1CC=C(C)C[C@@H]21`, the results for the ED50 in test [1], in test [2] and in test [3] were 0.09 mg/kg, 0.09 mg/kg and 0.13 mg/kg, respectively. In test [4], this compound returned an Activity of 0.86 nM.

Turning to `CCCCCC#Cc1cc(F)c2c(c1)OC(C)(C)[C@@H]1CC=C(C)C[C@@H]21`, the Activity in test [5] is 8%; in test [6], 4%; in test [7], -2.2 °C; in test [4], above 10000 nM; in [8] it was above 4550 nM; in test [9] it was 156.9 µg.

Consider `CCCCCCCc1cc(F)c2c(c1)OC(C)(C)[C@@H]1CC=C(C)C[C@@H]21`, for which the ED50 in test [1] came to 31.1 mg/kg; in test [2], 21.5 mg/kg; in [3], 6.9 mg/kg. The values for the Activity in test [4], in test [8] and in test [10] were 1560 nM, 1510 nM and 36%, respectively.

Regarding `CCCCCC#Cc1cc(O)c2c(c1)OC(C)(C)[C@@H]1CC=C(C)C[C@@H]21`, the figures for the ED50 in [1], in test [2] and in test [3] were 3.68 mg/kg, 3.24 mg/kg and 2.96 mg/kg, respectively. This compound showed an Activity in test [4] of 36 nM.

Turning to `CCCCC/C=C/c1cc(F)c2c(c1)OC(C)(C)[C@@H]1CC=C(C)C[C@@H]21`, the figures for the Activity in [4] and in test [8] were 285 nM and 40 nM, respectively.

With `CCCCCc1cc(O)c2c(c1)OC(C)(C)[C@@H]1CCC(C)=C[C@@H]21` [DRONABINOL], the ED50 in [1] is 1 mg/kg; in [2], 1.4 mg/kg; in test [3], 1.4 mg/kg. Also, the Activity in [9] amounted to 29 µg.
